From PMC11271312 (Nature Communications, 2024)

Experiments:
[1] = plasma from minipigs dosed intravenously with insulin icodec (2 nmol/kg); settings: Göttingen Minipigs, up to 10 days after dosing
[2] = 80% pooled plasma from minipigs and 20% PBS (pH 7.4); settings: minipig, 37 °C, up to […]
[3] = 80% pooled plasma from humans and 20% PBS (pH 7.4); settings: human, 37 °C, up to […]
[4] = 80% pooled plasma from rats and 20% PBS (pH 7.4); settings: rat, 37 °C, up to […]
[5] = 80% pooled plasma from dogs and 20% PBS (pH 7.4); settings: dog, 37 °C, up to […]

Substance	fragment found [1]	fragment found [2]	fragment found [3]	fragment found [4]	fragment found [5]
A14E B16H B25H B29Nε-C20 diacid-LγGlu–2xAdo desB30 human insulin	free insulin icodec B-chain (disulphide Cys 7–Cys 19)	insulin B-chain with internal disulphide Cys 7–Cys 19, 48 h	insulin B-chain with internal disulphide Cys 7–Cys 19, 24 h	insulin B-chain with internal disulphide Cys 7–Cys 19, 24 h	insulin B-chain with internal disulphide Cys 7–Cys 19, 96 h
A14E, B25H, desB30 | C18 diacid	–	–	–	B-chain (internal disulphide bond connecting Cys 7 with Cys 19), 48 h	–
A14E, B25H, desB30 | C20 diacid	–	B-chain (internal disulphide bond connecting Cys 7 with Cys 19), 168 h	B-chain (internal disulphide bond connecting Cys 7 with Cys 19), 96 h	B-chain (internal disulphide bond connecting Cys 7 with Cys 19), 24 h	–
A14E, desB30 | C18 diacid	–	–	–	B-chain (internal disulphide bond connecting Cys 7 with Cys 19), 24 h	–
B16H, desB30 | C18 diacid	–	B-chain (internal disulphide bond connecting Cys 7 with Cys 19), 5 h	B-chain (internal disulphide bond connecting Cys 7 with Cys 19), 24 h	B-chain (internal disulphide bond connecting Cys 7 with Cys 19), 24 h	B-chain (internal disulphide bond connecting Cys 7 with Cys 19), 24 h
B25H, desB30 | C18 diacid	–	–	–	B-chain (internal disulphide bond connecting Cys 7 with Cys 19), 5 h	–
desB30 | C18 diacid	–	–	–	B-chain (internal disulphide bond connecting Cys 7 with Cys 19), 2.5 h	–
